Laboratory results: patent US7655225B2, “Methods of expanding stem and progenitor cells and expanded cell populations obtained thereby” (Gamida Cell, Ltd., priority 2002, dated 2010)

Columns and labels:
[1] = test system: mononuclear cells (MNC); assay: Morphological analysis of cells from long-term MNC cultures; type: cell-based, human; conditions: untreated: fully differentiated
Experimental: Morphological assessment: In order to characterize the resulting culture populations, aliquots of cells were deposited on a glass slide (cytocentrifuge, Shandon, Runcorn, UK), fixed and stained in May-Grunwald and Giemsa stain. Cloning potential evaluation, morphological assessment and surface antigen analyses were carried out as described in the experimental procedures section of Example 1 above.

[2] = test system: CD34+ cells; assay: Morphological assessment of cultured CD34+ cells; type: cell-based, human; conditions: 8-weeks culture; control: mainly differentiated cells; FIGS. 3a-b
Excerpt: Morphological assessment: In order to characterize the resulting culture populations, aliquots of cells were deposited on a glass slide (cytocentrifuge, Shandon, Runcorn, UK), fixed and stained in May-Grunwald and Giemsa stain.

| Structure (SMILES) | morphological analysis of cells [1] | morphological analysis of culture [2] |
| --- | --- | --- |
| NCCNCCNCCNCCN [TEPA chelator, tetraethylenepentamine] | high proportion of non-differentiated cells |  |
| NCCNCCNCCNCCN.[Cl-].[Cl-].[Cu+2] [TEPA-Cu chelate, tetraethylenepentamine-copper chelate] |  | mainly blast-like cells |
